Source: patent US11691970B2, “Pyrazolopyridinone compounds” (Janssen Pharmaceutica NV, priority 2017, dated 2023)
Structures can show the parent of a compound that is named as a salt. Where two headings read alike, the source gives them in different places.

Experiments:
[1] = molecular target: T1, human FGFR3 wild type enzyme (cytoplasmic domain) (Homo sapiens, UniProt P22607); experiment: FGFR3 wild type mobility shift assay (enzymatic assay); assay type: biochemical; conditions: 75 μM ATP, 50 minutes at 30° C, Caliper EZ reader II
T1 construct: human FGFR3 wild type enzyme (cytoplasmic domain, from Carna Biosciences); purchased Carna Biosciences
T1 sequence (P22607 397-806 limits assumed): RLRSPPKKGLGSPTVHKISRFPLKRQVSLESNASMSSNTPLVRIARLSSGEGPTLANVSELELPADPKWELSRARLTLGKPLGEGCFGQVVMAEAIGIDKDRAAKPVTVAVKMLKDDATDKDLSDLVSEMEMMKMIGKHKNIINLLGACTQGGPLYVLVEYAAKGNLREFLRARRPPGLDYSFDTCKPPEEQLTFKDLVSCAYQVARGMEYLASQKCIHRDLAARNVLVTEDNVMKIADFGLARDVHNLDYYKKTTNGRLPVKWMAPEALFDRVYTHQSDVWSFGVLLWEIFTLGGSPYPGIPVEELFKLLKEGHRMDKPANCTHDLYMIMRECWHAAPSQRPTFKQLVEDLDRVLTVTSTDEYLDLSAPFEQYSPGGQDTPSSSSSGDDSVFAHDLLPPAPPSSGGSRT
Source text: FGFR3 Wild Type Mobility Shift Assay (Enzymatic Assay)

[2] = molecular target: T2, NIH/3T3 cells overexpressing FGFR3 WT-TACC3 fusion protein (Homo sapiens, UniProt P22607); experiment: NIH/3T3 FGFR3 WT-TACC3 cell proliferation assay (CellTiter Glo); assay type: cell-based; conditions: 72-hr incubation, top concentration 10 μM, read-out: NIH/3T3 FGFR3 WT-TACC3 CTG (IC50)
T2 construct: NIH/3T3 FGFR3 WT-TACC3 CTG (IC50); other: 72-hr incubation, CellTiter Glo, top concentration 10 μM; fused on or other part: Q9Y6A5 (Transforming acidic coiled-coil-containing protein 3)
T2 sequence (P22607 whole entry, change not shown, the tested form may be a part): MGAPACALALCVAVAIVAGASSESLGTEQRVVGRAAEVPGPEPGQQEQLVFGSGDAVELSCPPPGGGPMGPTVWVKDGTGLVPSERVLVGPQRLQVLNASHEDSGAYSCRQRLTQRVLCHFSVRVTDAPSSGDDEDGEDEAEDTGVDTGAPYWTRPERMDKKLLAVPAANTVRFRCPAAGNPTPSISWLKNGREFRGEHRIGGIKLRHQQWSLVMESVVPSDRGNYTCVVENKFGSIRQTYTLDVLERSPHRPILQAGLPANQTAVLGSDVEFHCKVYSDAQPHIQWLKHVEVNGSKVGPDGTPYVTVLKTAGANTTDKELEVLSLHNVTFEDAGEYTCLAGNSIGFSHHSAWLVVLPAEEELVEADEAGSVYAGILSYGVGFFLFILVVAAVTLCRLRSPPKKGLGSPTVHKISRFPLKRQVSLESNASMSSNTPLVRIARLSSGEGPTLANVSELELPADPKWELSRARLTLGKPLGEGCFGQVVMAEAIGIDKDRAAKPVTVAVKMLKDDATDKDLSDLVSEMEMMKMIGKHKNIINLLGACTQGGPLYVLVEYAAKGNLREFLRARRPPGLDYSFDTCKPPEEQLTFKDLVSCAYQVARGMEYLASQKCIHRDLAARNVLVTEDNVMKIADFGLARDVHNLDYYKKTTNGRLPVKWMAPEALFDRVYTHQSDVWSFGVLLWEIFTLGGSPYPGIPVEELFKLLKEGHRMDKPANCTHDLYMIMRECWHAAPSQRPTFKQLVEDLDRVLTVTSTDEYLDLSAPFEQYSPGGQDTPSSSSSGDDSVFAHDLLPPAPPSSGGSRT
Description: NIH/3T3 FGFR3 WT-TACC3 Cell Proliferation Assay
In day 1, 90 μL of cell suspension (NIH/3T3 cells overexpressing FGFR3 WT-TACC3 fusion protein) (total 30,000 cells per well in growth medium (DMEM containing 1% Glutamax, 10% FBS and 1% Pen/Strep)) was seeded in a 96-well plate and then incubated overnight at 37° C. and 5% CO2. […] After 72-hr incubation at 37° C. and 5% CO2, in day 5 a volume of 50 μL CellTiter Glo (CTG) reagent was added into cell-containing 96-well plate and the plate was incubated at room temperature for 10 minutes before RLUs (relative light unit) were measured on a microplate reader with luminescence detection module.

[3] = tested on: NIH/3T3 cells overexpressing FGFR3 WT-TACC3 fusion protein; experiment: NIH/3T3 FGFR3 WT-TACC3 cellular phospho-ERK assay (in vitro PD assay); assay type: cell-based; conditions: Mus musculus, NIH3T3; 1-hr incubation, AlphaLISA SureFire Ultra p-ERK1/2 (Thr202/Tyr204); read-out: NIH/3T3 FGFR3 WT-TACC3 pERK (IC50)
Description: NIH/3T3 FGFR3 WT-TACC3 Cellular Phospho-ERK Assay (In Vitro PD Assay)
50 μL of cell suspension (NIH/3T3 cells overexpressing FGFR3 WT-TACC3 fusion protein) (total 10,000 cells per well in growth medium (DMEM containing 1% Glutamax, 10% FBS and 1% Pen/Strep)) was seeded in a 384-well plate. […] After 1-hr incubation at 37° C. and 5% CO2, the medium was depleted and AlphaLISA SureFire Ultra p-ERK1/2 (Thr202/Tyr204) Assay Kit (from PerkinElmer) was applied for phospho-ERK level detection according to the kit instructions.

[4] = tested on: NIH/3T3 cells transfected with control vector; experiment: NIH/3T3 mock cell proliferation assay (counter assay, CellTiter Glo); assay type: cell-based; conditions: 72-hr incubation, top concentration 30 μM, counter assay for general toxicity, read-out: NIH/3T3 MOCK CTG (IC50)
Description: NIH/3T3 Mock Cell Proliferation Assay
In day 1, 90 μL of cell suspension (NIH/3T3 cells transfected with the same control vector as in the above two proliferation assays) (total 30,000 cells per well in growth medium (DMEM containing 1% Glutamax, 10% FBS and 1% Pen/Strep)) was seeded in a 96-well plate and then incubated overnight at 37° C. and 5% CO2. In day 2, 10 μL of growth medium containing 10-fold stock solution of testing compound was added into cell cultures (9 dose points with 3× serial dilution, starting with 30 μM, 0.3% DMSO final). After 72-hr incubation at 37° C. and 5% CO2, in day 5 a volume of 50 μL CellTiter Glo (CTG) reagent was added into cell-containing 96-well plate and the plate was incubated at room temperature for 10 minutes before RLUs (relative light unit) were measured on a microplate reader with luminescence detection module.

[5] = molecular target: T3, human FGFR3 V555L enzyme (cytoplasmic domain carrying V555L mutation) (Homo sapiens, UniProt P22607, V555L); experiment: FGFR3 V555L mobility shift assay (enzymatic assay); assay type: biochemical; conditions: 40 μM ATP, 50 minutes at 30° C, Caliper EZ reader II
T3 construct: human FGFR3 V555L enzyme (cytoplasmic domain carrying V555L mutation, from Carna Biosciences); purchased Carna Biosciences
T3 sequence (P22607 397-806 V555L limits assumed): as the sequence (P22607 397-806 limits assumed) above, with V159L counted along it
Source text: FGFR3 V555L Mobility Shift Assay (Enzymatic Assay)

SMILES	IC50 [1] [nM]	GI50 [2] [nM]	IC50 [3] [nM]	IC50 [4] [nM]	IC50 [5] [nM]	IC50 ([4]; Mus musculus, NIH3T3, 72 h) [nM]
CC(Nc1c(-c2nc3ccc(N4CCOCC4)cc3[nH]2)c(=O)[nH]c2cn(C)nc12)c1cscn1 (single isomer, unassigned) [Compound 42, (R*)-2-methyl-6-(6-morpholino-1H-benzo[d]imidazol-2-yl)-7-((1-(thiazol-4-yl)ethyl)-amino)-2H-pyrazolo[4,3-b]pyridin-5(4H)-one]	18.9	8.84	2.73	305	–	–
CC(Nc1c(-c2nc3ccc(N4CCOCC4)cc3[nH]2)c(=O)[nH]c2cn(C)nc12)c1cscn1 (single isomer, unassigned) [Compound 41, (S*)-2-methyl-6-(6-morpholino-1H-benzo[d]imidazol-2-yl)-7-((1-(thiazol-4-yl)ethyl)-amino)-2H-pyrazolo[4,3-b]pyridin-5(4H)-one]	23.7	5.57	–	–	50.8	425
C[C@@H](Nc1c(-c2nc3ccc(N4CCN(C)CC4)cc3[nH]2)c(=O)[nH]c2cn(C)nc12)c1ncccc1C(F)(F)F (single isomer, unassigned) [Compound 32, (R*)-2-methyl-6-(6-(4-methylpiperazin-1-yl)-1H-benzo[d]imidazol-2-yl)-7-((1-(3-(trifluoromethyl)pyridin-2-yl)ethyl)amino)-2H-pyrazolo[4,3-b]pyridin-5(4H)-one 0.2 formate]	4.29	195	–	–	–	4230
Cc1c(N2CCOCC2)ccc2nc(-c3c(NC(C)c4ncccn4)c4nn(C)cc4[nH]c3=O)[nH]c12 (single isomer, unassigned) [Compound 28, (S*)-2-methyl-6-(7-methyl-6-morpholino-1H-benzo[d]imidazol-2-yl)-7-((1-(pyrimidin-2-yl)ethyl)amino)-2H-pyrazolo[4,3-b]pyridin-5(4H)-one]	0.939	10	–	–	–	2070
COc1cc2nc(-c3c(N[C@@H](C)c4ncccn4)c4nn(C)cc4[nH]c3=O)[nH]c2cc1N1CCOCC1 [Compound 52, (S)-6-(5-methoxy-6-morpholino-1H-benzo[d]imidazol-2-yl)-2-methyl-7-((1-(pyrimidin-2-yl)ethyl)amino)-2H-pyrazolo[4,3-b]pyridin-5(4H)-one]	0.704	4.11	–	–	–	390
C[C@H](Nc1c(-c2nc3ccc(N4CCCCC4=O)c(F)c3[nH]2)c(=O)[nH]c2cn(C)nc12)c1ncccn1 [Compound 27, (S)-6-(7-fluoro-6-(2-oxopiperidin-1-yl)-1H-benzo[d]imidazol-2-yl)-2-methyl-7-((1-(pyrimidin-2-yl)ethyl)amino)-2H-pyrazolo[4,3-b]pyridin-5(4H)-one]	0.61	99.9	–	–	–	1370
CC(Nc1c(-c2nc3ccc(N4CCOCC4)c(F)c3[nH]2)c(=O)[nH]c2cn(C)nc12)c1ncccn1 (single isomer, unassigned) [Compound 14, (S*)-6-(7-fluoro-6-morpholino-1H-benzo[d]imidazol-2-yl)-2-methyl-7-((1-(pyrimidin-2-yl)ethyl)amino)-2H-pyrazolo[4,3-b]pyridin-5(4H)-one]	1.9	4.06	–	–	–	424
CCn1cc2[nH]c(=O)c(-c3nc4c(F)cc(N5CCOCC5)cc4[nH]3)c(N[C@@H](C)c3ncccn3)c2n1 [Compound 6, (S)-2-ethyl-6-(4-fluoro-6-morpholino-1H-benzo[d]imidazol-2-yl)-7-((1-(pyrimidin-2-yl)-ethyl)amino)-2,4-dihydro-5H-pyrazolo[4,3-b]pyridin-5-one]	1.16	13.8	–	–	–	1280
CCn1cc2[nH]c(=O)c(-c3nc4c(F)cc(N5CC(OC)C5)cc4[nH]3)c(N[C@@H](C)c3ncccn3)c2n1 [Compound 49, (S)-2-ethyl-6-(4-fluoro-6-(3-methoxyazetidin-1-yl)-1H-benzo[d]imidazol-2-yl)-7-((1-(pyrimidin-2-yl)ethyl)amino)-2H-pyrazolo[4,3-b]pyridin-5(4H)-one]	2.51	28.1	–	–	–	460
CCn1cc2[nH]c(=O)c(-c3nc4cnc(N5CCOCC5)cc4[nH]3)c(N[C@@H](C)c3ccccn3)c2n1 [Compound 47, (S)-2-ethyl-6-(6-morpholino-1H-imidazo[4,5-c]pyridin-2-yl)-7-((1-(pyridin-2-yl)ethyl)-amino)-2,4-dihydro-5H-pyrazolo[4,3-b]pyridin-5-one]	2.03	17.4	–	–	–	1040
